Test results as given in US5955082A, “Insecticidal factor from field peas” (Her Majesty the Queen in right of Canada, as represented by …, priority 1997, dated 1999).

Assays:
[1] = system: rice weevil; test: Flour disk feeding bioassay; assay type: in vivo, Sitophilus oryzae (L.)
Protocol: The rice weevil [Sitophilus oryzae (L.)] was used for all bioassays. One ml of an aqueous solution containing test material was mixed with 200 mg wheat flour. Distilled water was used as a control. Approximately 100 μl of the stirred suspension were removed and placed in the bottom of a polystyrene Petri dish, and allowed to air dry overnight at room temperature to produce the flour disks. The disks were equilibrated at 30±1° C. and 70±5% r.h. for 24 hr to stabilize the moisture content. Individual weighed disks and 5 adult beetles (1 to 7 days old, starved for 24 hrs before use) were transferred to petri dishes and kept at 30±1° C. and 70±5% r.h. for 4 days (5 replicates) before the remains of the flour disk were weighed.
Saponins, characterized by their bitter taste, foaming in aqueous solutions and haemolytic activity, are a diverse group of secondary plant metabolites containing a carbohydrate moiety (mono- or oligosaccharide) attached to either a steroid (C27) or a triterpenoid (C30). Saponins are reported to have insecticidal activity. Saponin extractions were prepared from the seeds of commercial peas (Pisum sativum). Approximately 100 g seeds were milled with a Stein mill for 5 minutes and 10 g flour was extracted with 1000 ml chloroform for 16 hrs in a Soxhlet extractor to remove pigments and lipids. Three hundred mg air-dried defatted flour was refluxed for 5 min with 60 ml 80% MeOH, then transferred to a centrifuge tube with 2×5 ml 80% MeOH rinse. The slurry extracts were centrifuged at 10,000 rpm for 10 min. The pellet was dried at room temperature for testing the residual insecticidal activities and the supernatant was evaporated to 7-8 ml under reduced pressure in a rotary evaporator at 37° C. The solution and additional 3 ml distilled water rinse were applied to a reverse phase C18 cartridge (Sep Pak, C18). The column was washed with 3×5 ml 30% MeOH then eluted with 4×5 ml MeOH. The MeOH elute was evaporated to dryness in a rotary evaporator, and then dissolved in 6 ml distilled water (at a concentration equivalent to 50 mg defatted flour per ml). This extract was used for bioassay.
One ml saponin extract (50 mg equivalent/ml) was loaded on ion exchange columns (2 ml volume) with Dowex AG-SOW [H^+ ] and Dowex AG-1 [Cl^- ] respectively. The columns were eluted with 10 ml distilled water. The water elute was evaporated to dryness in a rotary evaporator, and then dissolve in 1 ml distilled water. The water fractions were used for HPLC analysis and bioassay.
The bioassays were as described in the preceding example.

[2] = system: S. oryzae; test: Wheat flour disk feeding bioassay of lectins and trypsin inhibitors; assay type: in vivo; conditions: for Feeding Rate (% of Control): 1% w/w in wheat flour disk; for Activity against S. oryzae: native form, 1% w/w
Protocol: Lectins and trypsin inhibitors shown in Table 20 were assayed in their native form to determine their activity against S. oryzae in the wheat flour disk bioassay.

CC1OC(OC2C(OC3C(OC4CCC5(C)C(CCC6(C)C5CC=C5C7CC(C)(C)CC(O)C7(C)CCC56C)C4(C)CO)OC(C(=O)O)C(O)C3O)OC(CO)C(O)C2O)C(O)C(O)C1O (centres unmarked) [Soyasaponin I]
Food consumption ([1]; 0.63 mg/g): 0.52 mg/day/insect
Food consumption, % of control ([1]; 0.63 mg/g): 99.8%
Food consumption ([1]; 1.25 mg/g): 0.44 mg/day/insect
Food consumption, % of control ([1]; 1.25 mg/g): 84.2%
Food consumption ([1]; 2.50 mg/g): 0.43 mg/day/insect
Food consumption, % of control ([1]; 2.50 mg/g): 82.8%
Food consumption ([1]; 5.00 mg/g): 0.46 mg/day/insect
Food consumption, % of control ([1]; 5.00 mg/g): 88.4%
Food consumption ([1]; 10.0 mg/g): 0.51 mg/day/insect
Food consumption, % of control ([1]; 10.0 mg/g): 97.9%
Activity against the test insect ([1]; ~0.6 mg/g and up to 10 mg/g): not active

Concanavalin A
Feeding Rate (% of Control) [2]: 82.5%
Activity against S. oryzae [2]: weakly active

Soybean trypsin inhibitor
Feeding Rate (% of Control) [2]: 98.7%
Activity against S. oryzae [2]: inactive

B1: Pea lectin: pea lectin, native form (protein, UniProt P02867 31-217; P02867 218-275, looked up)
Lectin beta chain: TETTSFLITKFSPDQQNLIFQGDGYTTKEKLTLTKAVKNTVGRALYSSPIHIWDRETGNVANFVTSFTFVINAPNSYNVADGFTFFIAPVDTKPQTGGGYLGVFNSAEYDKTTQTVAVEFDTFYNAAWDPSNRDRHIGIDVNSIKSVNTKSWKLQNGEEANVVIAFNAATNVLTVSLTYPNSLEEEN
Lectin alpha chain: VTSYTLSDVVSLKDVVPEWVRIGFSATTGAEYAAHEVLSWSFHSELSGTSSSKQAADA
Feeding Rate (% of Control) [2]: 71.4%
Activity against S. oryzae [2]: weakly active
